Test: xn = mol fraction of the nth substance listed
Conditions: Drop volume

NCC(=O)O [2-aminoacetic acid] + O
surface tension liquid-gas [mN/m]
Conditions | x1 = 0.000175 | x1 = 0.000349 | x1 = 0.000698 | x1 = 0.001043 | x1 = 0.001394 | x1 = 0.00174 | x1 = 0.002087 | x1 = 0.002641
293.15 K | 72.47 | 72.49 | 72.52 | 72.57 | 72.62 | 72.68 | 72.73 | 72.81
298.15 K | 71.75 | 71.79 | 71.86 | 71.92 | 71.99 | 72.05 | 72.11 | 72.2
303.15 K | 71.04 | 71.12 | 71.23 | 71.33 | 71.43 | 71.54 | 71.64 | 71.76
308.15 K | 70.26 | 70.38 | 70.52 | 70.66 | 70.81 | 70.95 | 71.09 | 71.25
313.15 K | 69.49 | 69.63 | 69.79 | 69.95 | 70.11 | 70.27 | 70.43 | 70.61

CCCCC(N)C(=O)O (stereo not given) [2-aminohexanoic acid] + O
surface tension liquid-gas [mN/m]
Conditions | x1 = 0.000156 | x1 = 0.000311 | x1 = 0.000524 | x1 = 0.000699 | x1 = 0.000873 | x1 = 0.001048 | x1 = 0.001222 | x1 = 0.001411
293.15 K | 72.4 | 72.21 | 72.02 | 71.85 | 71.71 | 71.48 | 71.28 | 71.09
298.15 K | 71.55 | 71.28 | 71.14 | 71 | 70.82 | 70.59 | 70.42 | 70.18
303.15 K | 70.74 | 70.54 | 70.43 | 70.22 | 70.06 | 69.79 | 69.65 | 69.44
308.15 K | 69.9 | 69.8 | 69.62 | 69.44 | 69.23 | 69 | 68.8 | 68.59
313.15 K | 69.2 | 69.02 | 68.91 | 68.68 | 68.47 | 68.18 | 68.02 | 67.87

CCC(N)C(=O)O (stereo not drawn) [(.+-.)-α-aminobutyric acid] + O
surface tension liquid-gas [mN/m]
Conditions | x1 = 0.000177 | x1 = 0.000351 | x1 = 0.000702 | x1 = 0.001053 | x1 = 0.001403 | x1 = 0.001754 | x1 = 0.002103 | x1 = 0.002641
293.15 K | 72.49 | 72.49 | 72.48 | 72.47 | 72.46 | 72.45 | 72.44 | 72.43
298.15 K | 71.8 | 71.79 | 71.77 | 71.75 | 71.74 | 71.72 | 71.71 | 71.69
303.15 K | 71.08 | 71.07 | 71.05 | 71.02 | 71 | 70.98 | 70.96 | 70.93
308.15 K | 70.25 | 70.24 | 70.21 | 70.19 | 70.15 | 70.13 | 70.09 | 70.07
313.15 K | 69.47 | 69.45 | 69.42 | 69.39 | 69.35 | 69.31 | 69.28 | 69.22

CCCC(N)C(=O)O (stereo not drawn) [DL-2-aminopentanoic acid] + O
surface tension liquid-gas [mN/m]
Conditions | x1 = 0.000173 | x1 = 0.000347 | x1 = 0.000561 | x1 = 0.00104 | x1 = 0.001386 | x1 = 0.001733 | x1 = 0.002079 | x1 = 0.002641
293.15 K | 72.55 | 72.51 | 72.43 | 72.37 | 72.31 | 72.25 | 72.16 | 72.06
298.15 K | 71.84 | 71.8 | 71.71 | 71.63 | 71.53 | 71.47 | 71.41 | 71.25
303.15 K | 71.16 | 71.13 | 71.01 | 70.91 | 70.79 | 70.71 | 70.65 | 70.5
308.15 K | 70.35 | 70.31 | 70.2 | 70.1 | 70.02 | 69.85 | 69.78 | 69.63
313.15 K | 69.39 | 69.34 | 69.22 | 69.07 | 69 | 68.86 | 68.75 | 68.58

CC(N)C(=O)O (stereo not drawn) [DL-2-aminopropanoic acid] + O
surface tension liquid-gas [mN/m]
Conditions | x1 = 0.000176 | x1 = 0.000353 | x1 = 0.000705 | x1 = 0.001055 | x1 = 0.001406 | x1 = 0.001752 | x1 = 0.002105 | x1 = 0.002642
293.15 K | 72.52 | 72.53 | 72.55 | 72.58 | 72.59 | 72.62 | 72.64 | 72.68
298.15 K | 71.83 | 71.86 | 71.9 | 71.95 | 72 | 72.07 | 72.1 | 72.18
303.15 K | 71.11 | 71.15 | 71.25 | 71.35 | 71.44 | 71.5 | 71.61 | 71.72
308.15 K | 70.4 | 70.42 | 70.57 | 70.7 | 70.83 | 70.94 | 71.09 | 71.28
313.15 K | 69.48 | 69.59 | 69.73 | 69.87 | 70.02 | 70.2 | 70.36 | 70.57

O [water] + CC(N)C(=O)O
x2 = 0
Conditions | surface tension liquid-gas [mN/m]
293.15 K | 72.5
298.15 K | 71.73
303.15 K | 71.04
308.15 K | 70.3
313.15 K | 69.42

O [water] + CCC(N)C(=O)O
x2 = 0
Conditions | surface tension liquid-gas [mN/m]
293.15 K | 72.5
298.15 K | 71.73
303.15 K | 71.1
308.15 K | 70.27
313.15 K | 69.5

O [water] + CCCC(N)C(=O)O
x2 = 0
Conditions | surface tension liquid-gas [mN/m]
293.15 K | 72.58
298.15 K | 71.73
303.15 K | 71.21
308.15 K | 70.4
313.15 K | 69.46

O [water] + CCCCC(N)C(=O)O
x2 = 0
Conditions | surface tension liquid-gas [mN/m]
293.15 K | 72.5
298.15 K | 71.73
303.15 K | 71
308.15 K | 70.23
313.15 K | 69.42

O [water] + NCC(=O)O
x2 = 0
Conditions | surface tension liquid-gas [mN/m]
293.15 K | 72.45
298.15 K | 71.73
303.15 K | 71
308.15 K | 70.22
313.15 K | 69.45

From the NIST ThermoML archive (doi:10.1021/acs.jced.7b00433)
